Columns and labels:
[1] = biological target: T1, Alpha-1A adrenergic receptor (Rattus norvegicus, UniProt P43140); assay: DRUGMATRIX: Alpha-1A adrenergic receptor radioligand binding (ligand: prazosin); assay type: cell membranes, Wistar, Submaxillary gland, Membrane; details: Not Active = under 50% inhibition at 10 µM; for Ki: read-out: Ki
T1 sequence (P43140 whole entry): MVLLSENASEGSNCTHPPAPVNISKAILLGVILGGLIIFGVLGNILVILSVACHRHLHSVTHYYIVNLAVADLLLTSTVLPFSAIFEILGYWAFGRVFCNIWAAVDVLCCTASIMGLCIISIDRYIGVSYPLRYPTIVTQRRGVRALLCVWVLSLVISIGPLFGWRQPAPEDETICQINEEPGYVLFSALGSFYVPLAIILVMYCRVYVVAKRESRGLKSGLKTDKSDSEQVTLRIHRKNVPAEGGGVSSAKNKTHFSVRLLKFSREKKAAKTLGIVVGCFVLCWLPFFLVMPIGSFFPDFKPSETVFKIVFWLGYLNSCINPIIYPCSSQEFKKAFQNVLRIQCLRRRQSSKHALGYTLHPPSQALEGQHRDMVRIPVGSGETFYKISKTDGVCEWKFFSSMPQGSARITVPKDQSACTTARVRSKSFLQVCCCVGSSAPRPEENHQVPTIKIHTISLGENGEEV

[2] = biological target: T2, Alpha-2C adrenergic receptor (Homo sapiens, UniProt P18825); assay: DRUGMATRIX: Adrenergic Alpha-2C radioligand binding (ligand: [3H] MK-912); assay type: cell membranes, Sf9, Membrane
T2 sequence (P18825 whole entry): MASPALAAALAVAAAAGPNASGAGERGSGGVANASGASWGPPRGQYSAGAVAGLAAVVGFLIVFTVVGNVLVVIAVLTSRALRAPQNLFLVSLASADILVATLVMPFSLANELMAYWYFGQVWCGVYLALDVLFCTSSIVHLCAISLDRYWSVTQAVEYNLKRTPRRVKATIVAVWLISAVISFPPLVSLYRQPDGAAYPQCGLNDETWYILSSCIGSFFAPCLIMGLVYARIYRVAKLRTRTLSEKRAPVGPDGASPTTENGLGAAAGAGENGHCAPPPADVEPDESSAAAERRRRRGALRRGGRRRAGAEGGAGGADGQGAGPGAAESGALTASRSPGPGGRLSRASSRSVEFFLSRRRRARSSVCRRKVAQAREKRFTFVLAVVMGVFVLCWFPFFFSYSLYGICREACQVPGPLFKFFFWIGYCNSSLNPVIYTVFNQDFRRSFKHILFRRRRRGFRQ

[3] = DRUGMATRIX: Calcium Channel Type L, Benzothiazepine radioligand binding (ligand: [3H] Diltiazem); assay type: cell membranes, Rattus norvegicus, Wistar, Brain, Membrane; details: Not Active = under 50% inhibition at 10 µM
[4] = biological target: T3, C-X-C chemokine receptor type 2 (Homo sapiens, UniProt P25025); assay type: cell membranes, Membrane; details: cho-k1; also: in other assays of this panel Not Active means under 50% inhibition at 10 µM
T3 sequence (P25025 whole entry): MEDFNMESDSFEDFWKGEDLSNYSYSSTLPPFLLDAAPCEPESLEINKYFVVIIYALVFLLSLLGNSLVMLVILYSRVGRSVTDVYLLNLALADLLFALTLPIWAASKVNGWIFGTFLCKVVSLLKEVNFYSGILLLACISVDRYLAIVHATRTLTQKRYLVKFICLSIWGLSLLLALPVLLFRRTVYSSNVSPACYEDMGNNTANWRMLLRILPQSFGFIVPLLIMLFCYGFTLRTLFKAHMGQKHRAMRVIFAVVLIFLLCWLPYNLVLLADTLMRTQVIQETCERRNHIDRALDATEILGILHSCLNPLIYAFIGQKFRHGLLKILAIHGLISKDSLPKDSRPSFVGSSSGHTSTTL

Melanocortin receptor 3 = Melanocortin receptor 3 (Homo sapiens, UniProt P41968); assay type: cell membranes, Membrane; details: hek293; also: in other assays of this panel Not Active means under 50% inhibition at 10 µM
Melanocortin receptor 3, sequence (P41968 whole entry): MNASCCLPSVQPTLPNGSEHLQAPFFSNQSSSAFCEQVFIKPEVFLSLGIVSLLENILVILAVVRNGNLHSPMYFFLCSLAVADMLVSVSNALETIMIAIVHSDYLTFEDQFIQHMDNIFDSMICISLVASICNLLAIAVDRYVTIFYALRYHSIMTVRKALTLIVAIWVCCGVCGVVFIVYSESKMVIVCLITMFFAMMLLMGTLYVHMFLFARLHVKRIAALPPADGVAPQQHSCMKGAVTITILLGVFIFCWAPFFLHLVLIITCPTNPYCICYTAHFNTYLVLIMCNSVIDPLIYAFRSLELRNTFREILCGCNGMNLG

[5] = biological target: T4, Amine oxidase [flavin-containing] A (Homo sapiens, UniProt P21397); assay: DRUGMATRIX: Monoamine Oxidase MAO-A enzyme inhibition (substrate: Kynuramine); set-up: species or system BTI-TN-5B1-4; details: bti-tn-5b1-4; Not Active = under 50% inhibition at 10 µM
T4 sequence (P21397 whole entry): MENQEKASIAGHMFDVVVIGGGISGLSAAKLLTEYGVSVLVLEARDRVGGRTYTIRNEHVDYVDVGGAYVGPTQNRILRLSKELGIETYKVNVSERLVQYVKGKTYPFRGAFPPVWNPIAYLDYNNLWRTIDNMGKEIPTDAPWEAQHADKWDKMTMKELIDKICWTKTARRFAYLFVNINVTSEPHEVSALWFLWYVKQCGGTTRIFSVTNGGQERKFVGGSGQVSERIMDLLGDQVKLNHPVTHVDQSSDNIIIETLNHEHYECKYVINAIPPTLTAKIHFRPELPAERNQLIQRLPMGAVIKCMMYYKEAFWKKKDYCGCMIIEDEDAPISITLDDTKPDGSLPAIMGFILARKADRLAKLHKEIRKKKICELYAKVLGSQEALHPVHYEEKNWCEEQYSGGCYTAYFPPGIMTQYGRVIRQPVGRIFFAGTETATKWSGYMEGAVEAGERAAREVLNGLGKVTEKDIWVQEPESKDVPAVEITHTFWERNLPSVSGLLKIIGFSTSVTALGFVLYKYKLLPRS

[6] = biological target: Delta-type opioid receptor (Homo sapiens, UniProt P41143); assay type: cell membranes, HEK293, Membrane; also: in other assays of this panel Not Active means under 50% inhibition at 10 µM
Delta-type opioid receptor, sequence (P41143 whole entry): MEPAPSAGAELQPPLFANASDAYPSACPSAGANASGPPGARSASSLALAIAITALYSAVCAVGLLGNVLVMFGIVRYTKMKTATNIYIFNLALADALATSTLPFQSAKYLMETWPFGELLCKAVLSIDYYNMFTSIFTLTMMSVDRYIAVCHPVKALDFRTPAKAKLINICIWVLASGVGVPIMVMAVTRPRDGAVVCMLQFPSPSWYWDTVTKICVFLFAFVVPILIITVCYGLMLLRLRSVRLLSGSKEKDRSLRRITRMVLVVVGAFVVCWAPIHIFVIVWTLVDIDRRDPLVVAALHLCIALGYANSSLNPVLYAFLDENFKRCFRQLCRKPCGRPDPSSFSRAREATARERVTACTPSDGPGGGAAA

[7] = DRUGMATRIX: Platelet-Derived Growth Factor (PDGF) radioligand binding (ligand: [125I] PDGF); assay type: cell-based; details: nih3t3; Not Active = under 50% inhibition at 10 µM
Interstitial collagenase = biological target: T5, Interstitial collagenase (Homo sapiens, UniProt P03956); assay type: tissue-based, Rheumatoid synovial fibroblasts;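 also: MMP-1 enzyme inhibition assay using a peptide substrate; in other assays of this panel Not Active means under 50% inhibition at 10 µM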
T5 sequence (P03956 whole entry): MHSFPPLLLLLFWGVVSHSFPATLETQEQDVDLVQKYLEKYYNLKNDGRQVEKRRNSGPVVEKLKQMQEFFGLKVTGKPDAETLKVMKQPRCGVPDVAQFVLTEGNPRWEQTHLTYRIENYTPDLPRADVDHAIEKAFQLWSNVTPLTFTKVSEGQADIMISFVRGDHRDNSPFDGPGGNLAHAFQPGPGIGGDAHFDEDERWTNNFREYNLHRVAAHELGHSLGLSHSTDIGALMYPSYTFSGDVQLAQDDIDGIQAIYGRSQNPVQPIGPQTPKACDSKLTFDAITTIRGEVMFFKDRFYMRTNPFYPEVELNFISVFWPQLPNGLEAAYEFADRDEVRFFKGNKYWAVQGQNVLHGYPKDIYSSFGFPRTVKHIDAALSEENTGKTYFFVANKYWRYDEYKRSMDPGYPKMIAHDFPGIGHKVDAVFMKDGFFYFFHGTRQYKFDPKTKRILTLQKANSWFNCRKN

[8] = biological target: Matrix metalloproteinase-9 (Homo sapiens, UniProt P14780); assay type: cell-based
Matrix metalloproteinase-9, sequence (P14780 whole entry): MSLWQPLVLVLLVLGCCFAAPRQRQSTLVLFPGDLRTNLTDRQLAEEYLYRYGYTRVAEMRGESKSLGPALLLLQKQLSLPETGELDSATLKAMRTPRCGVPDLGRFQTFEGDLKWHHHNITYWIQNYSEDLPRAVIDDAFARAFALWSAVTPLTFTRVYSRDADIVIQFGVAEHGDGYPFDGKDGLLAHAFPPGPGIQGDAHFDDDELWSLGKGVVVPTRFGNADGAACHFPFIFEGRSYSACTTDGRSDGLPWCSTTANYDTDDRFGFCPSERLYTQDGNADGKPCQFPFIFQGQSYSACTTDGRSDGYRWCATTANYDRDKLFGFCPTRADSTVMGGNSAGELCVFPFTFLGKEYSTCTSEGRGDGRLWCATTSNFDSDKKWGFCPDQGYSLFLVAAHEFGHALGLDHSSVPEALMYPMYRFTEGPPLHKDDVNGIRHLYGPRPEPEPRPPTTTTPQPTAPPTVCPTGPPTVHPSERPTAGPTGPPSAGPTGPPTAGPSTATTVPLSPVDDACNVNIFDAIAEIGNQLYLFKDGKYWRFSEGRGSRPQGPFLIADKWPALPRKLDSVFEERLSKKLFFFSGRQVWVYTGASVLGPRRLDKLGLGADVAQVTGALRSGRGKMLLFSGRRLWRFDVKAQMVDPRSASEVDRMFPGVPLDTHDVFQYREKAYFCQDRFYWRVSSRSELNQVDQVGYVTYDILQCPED

[9] = biological target: Protein phosphatase 3 catalytic subunit alpha (Homo sapiens, UniProt Q08209); set-up: species or system Escherichia coli
[10] = DRUGMATRIX: Purinergic P2X radioligand binding (ligand: [3H] alpha, beta-Methylene-ATP); assay type: cell membranes, Oryctolagus cuniculus, New Zealand albino, Urinary bladder, Membrane; details: Not Active = under 50% inhibition at 10 µM

With `CC(C)(C)NC(=O)[C@@H]1CN(Cc2cccnc2)CCN1C[C@@H](O)C[C@@H](Cc1ccccc1)C(=O)N[C@H]1c2ccccc2C[C@H]1O.O` the IC50 [1] was “Not Active”, the IC50 ([2]; sf9) was “Not Active” and the IC50 [3] was “Not Active”. The Ki [3] was “Not Active”, the IC50 [4] was “Not Active” and the IC50 (Melanocortin receptor 3) was “Not Active”. For the same molecule, the IC50 [5] was “Not Active”, the IC50 ([6]; hek293) was “Not Active” and the IC50 [7] was “Not Active”. For the same molecule, the Ki [7] was “Not Active”, the IC50 (Interstitial collagenase) was “Not Active” and the IC50 [8] was “Not Active”. The IC50 [9] was “Not Active”, the IC50 [10] was “Not Active” and the Ki [10] was “Not Active”.
For `COc1ccc(CCN2CCC(Nc3nc4ccccc4n3Cc3ccc(F)cc3)CC2)cc1` [ASTEMIZOLE], the IC50 ([1]; read-out: IC50) was 24 nM, the Ki [1] was 9.9 nM and the IC50 [4] was “Not Active”. The IC50 [5] was “Not Active”, the IC50 (Interstitial collagenase) was “Not Active” and the IC50 [8] was “Not Active”. For the same molecule, the IC50 [9] was “Not Active”.
With `CN(C)CCCN1c2ccccc2CCc2ccc(Cl)cc21` [CLOMIPRAMINE] the IC50 [4] was “Not Active”, the IC50 (Melanocortin receptor 3) was “Not Active” and the IC50 [5] was “Not Active”. For the same molecule, the IC50 ([6]; hek293) was “Not Active”, the IC50 (Interstitial collagenase) was “Not Active” and the IC50 [8] was “Not Active”. The IC50 [9] was “Not Active”.
In the case of `Clc1ccccc1C(c1ccccc1)(c1ccccc1)n1ccnc1` [CLOTRIMAZOLE], the IC50 ([1]; read-out: IC50) is reported as 26300 nM, the Ki [1] is reported as 10700 nM and the IC50 [4] is reported as “Not Active”. The IC50 (Melanocortin receptor 3) was “Not Active”, the IC50 [5] was “Not Active” and the IC50 ([6]; read-out: IC50) was 4980 nM. For the same molecule, the Ki ([6]; read-out: Ki) was 1760 nM, the IC50 (Interstitial collagenase) was “Not Active” and the IC50 [8] was “Not Active”. For the same molecule, the IC50 [9] was “Not Active”.
With `O=C(CCCN1CCC(O)(c2ccc(Cl)cc2)CC1)c1ccc(F)cc1` [HALOPERIDOL] the IC50 [4] was “Not Active”, the IC50 (Melanocortin receptor 3) was “Not Active” and the IC50 [5] was “Not Active”. The IC50 ([6]; hek293) was “Not Active”, the IC50 (Interstitial collagenase) was “Not Active” and the IC50 [8] was “Not Active”. The IC50 [9] was “Not Active”.
In the case of `CN1CCN2c3ccccc3Cc3ccccc3C2C1` (stereo not drawn) [MIANSERIN], the IC50 ([2]; read-out: IC50) is reported as 179 nM, the Ki ([2]; read-out: Ki) is reported as 26 nM and the IC50 [4] is reported as “Not Active”. The IC50 (Melanocortin receptor 3) was “Not Active”, the IC50 [5] was “Not Active” and the IC50 ([6]; hek293) was “Not Active”. For the same molecule, the IC50 (Interstitial collagenase) was “Not Active”, the IC50 [8] was “Not Active” and the IC50 [9] was “Not Active”.
With `CC(C)(O)c1ccccc1CC[C@@H](SCC1(CC(=O)O)CC1)c1cccc(/C=C/c2ccc3ccc(Cl)cc3n2)c1` [MONTELUKAST] the IC50 [1] was “Not Active”, the IC50 [4] was “Not Active” and the IC50 (Melanocortin receptor 3) was “Not Active”. For the same molecule, the IC50 [5] was “Not Active”, the IC50 (Interstitial collagenase) was “Not Active” and the IC50 [8] was “Not Active”. The IC50 [9] was “Not Active”.
In the case of `CSc1ccc2c(c1)N(CCC1CCCCN1C)c1ccccc1S2` (stereo not drawn) [THIORIDAZINE], the IC50 ([1]; read-out: IC50) is reported as 5.09 nM, the Ki [1] is reported as 2.06 nM and the IC50 [4] is reported as “Not Active”. For the same molecule, the IC50 (Melanocortin receptor 3) was “Not Active”, the IC50 [5] was “Not Active” and the IC50 ([6]; hek293) was “Not Active”. The IC50 (Interstitial collagenase) was “Not Active”, the IC50 [8] was “Not Active” and the IC50 [9] was “Not Active”.
With `COc1cccc(C2(O)CCCCC2CN(C)C)c1` (stereo not drawn) [TRAMADOL] the IC50 [1] was “Not Active”, the IC50 ([2]; sf9) was “Not Active” and the IC50 [4] was “Not Active”. The IC50 (Melanocortin receptor 3) was “Not Active”, the IC50 [5] was “Not Active” and the IC50 ([6]; hek293) was “Not Active”. For the same molecule, the IC50 (Interstitial collagenase) was “Not Active”, the IC50 [8] was “Not Active” and the IC50 [9] was “Not Active”.
With `COC(=O)[C@@H]1[C@H]2C[C@H]3c4[nH]c5ccccc5c4CCN3C[C@@H]2CC[C@@H]1O` [YOHIMBINE] the IC50 [3] was “Not Active”, the Ki [3] was “Not Active” and the IC50 [4] was “Not Active”. The IC50 (Melanocortin receptor 3) was “Not Active”, the IC50 [5] was “Not Active” and the IC50 ([6]; hek293) was “Not Active”. For the same molecule, the IC50 [7] was “Not Active”, the Ki [7] was “Not Active” and the IC50 (Interstitial collagenase) was “Not Active”. The IC50 [8] was “Not Active”, the IC50 [9] was “Not Active” and the IC50 [10] was “Not Active”. For the same molecule, the Ki [10] was “Not Active”.

— ChEMBL document CHEMBL1909046, “DrugMatrix in vitro pharmacology data”
